Assay results as given in patent US7511123B2, “Immuno-interactive fragments of the alpha-C subunit of inhibin” (Prince Henry's Institute of Medical Research, priority 1999, dated 2009).

Tests used:
[1] = test system: As #41; assay: RIA (Assay 2): competition with iodinated inhibin for As #41; type: binding, sheep; conditions: for As#41 ED50: biotinylated peptides, 50% fall in binding of iodinated inhibin
Description: (§1) This assay was used to determine which peptides compete with iodinated 30 kDa inhibin for As #41, #128 and #1989 (used in the original inhibin RIA, Lapphorn et al., 1989, supra) in a RIA format. This assay identifies those peptides that bind to inhibin-binding antibodies in the antiserum and provides a stricter affinity and specificity assessment in identifying the appropriate epitopes than that found with Assay 1. The competition between peptide and hr-inhibin (used as the standard) was assessed from their ED50 values. The RIA consisted of the competition of iodinated inhibin and either hr-inhibin reference preparation, individual peptides or pools from the 4 peptide regions, with As #41, #128 and in some instances, As #1989. The peptides/inhibin/iodinated inhibin and antisera (at a prescribed dilution) were incubated overnight at 4° C. using standard methodologies. The antibody-bound iodinated inhibin was immunoprecipitated with the addition of an anti-sheep IgG serum raised in goats and the radioactivity was measured in a gamma counter. The concentration of peptide that gives a 50% fall in binding of iodinated inhibin (ED50) was determined and this value was used to give a measure of the affinity of the peptide for the antiserum. This methodology consisted of determining the ED50 of the peptide in the RIA using iodinated human recombinant inhibin as tracer with either As #41, As #128 or As #1989 and graded doses of either hr-inhibin or peptide as described in Example 2.

[2] = test system: As #128; assay: RIA (Assay 2): competition with iodinated inhibin for As #128; type: binding, sheep; conditions: for As#128 ED50: biotinylated peptides, 50% fall in binding of iodinated inhibin
Description: as §1

[3] = test system: As #1989; assay: RIA (Assay 2): competition with iodinated inhibin for As #1989; type: binding, rabbit; conditions: for As#1989 ED50: biotinylated peptides, 50% fall in binding of iodinated inhibin
Description: as §1

[4] = test system: As #128; assay: Solid phase assay (Assay 1): biotinylated peptides binding to As #128; parameters: species or system sheep; key: +++++ major contribution; + minor contribution; conditions: relative contribution
Experimental: This assay is a broad screen of the binding of the 31 biotinylated peptides to As #41 and #128 as recommended by Chiron Mimotopes.
The biotinylated peptides were initially bound to streptavidin-coated 96-well plates (2 hours at room temperature), antiserum #41 or #128 was then added (2 hours room temperature) to bind to the peptides. Detection of antiserum binding was assessed by a further incubation with an anti-ovine IgG serum labeled with the enzyme, horseradish peroxidase. The enzyme activity was assessed by conversion of a colorless substrate to a colored product that is detected in a spectrophotometer. The enzyme activity measured was proportional to the extent of the binding of the peptides.

[5] = test system: As #128; assay: Competitive 2-site assay (Assay 3), approach (a); type: binding, sheep; parameters: key: +++++ major contribution; + minor contribution; conditions: relative contribution
Description: This assay was developed to establish the relative importance of the individual peptides and peptide pools (identified as epitopes in Assays 1 and 2) in the sandwich antibody format used in the IFMA with As #128 as capture antibody and As #41 as detection antibody. Two approaches (a and b) were considered, Approach (a) explores the cross-reaction of peptides with inhibin for the immobilized As #128 while Approach (b) assesses their cross-reaction with inhibin for As #41.
Approach (a). The biotinylated peptide pools and/or individual peptides at various concentrations, in combination with a fixed concentration of hr-inhibin, were incubated for 2 hours with As #128-coated plates. The plates were then washed to remove any unbound material. Iodinated As #41 was then added to bind to the bound hr-inhibin, the plates washed and the bound radioactivity was measured in a gamma counter. The counts measured were proportional to the amount of hr-inhibin bound to both antisera. The possibility that a peptide contained two epitopes capable of linking As #128 and #41 was assessed in the absence of added hr-inhibin.

[6] = test system: PO#14 + PO#23-R1; assay: Cross-reaction of inhibin-related proteins in 14 + 23-R1 ELISA; type: binding, mouse; conditions: relative to rh inhibin A standard (=100); average of two experiments
Experimental: (§2) An ELISA system using 96-well microtiter plates was developed consisting of one alpha subunit antibody as coating antibody and an alkaline phosphatase-linked second antibody as label. The alkaline phosphatase activity was amplified using an ELISA amplification kit (Gibco, Life Technologies, Rockville Md., USA). The plate was initially coated with monoclonal antibody at 2 micrograms/well in 0.1 M bicarbonate buffer pH 9.4 overnight at room temperature and blocked with 50 mM TRIS/HCl, 1% bovine serum albumin (BSA) pH 7.4.
(§3) The ELISAs in application to non-serum samples consisted of 100 microliters sample or recombinant human (rh) inhibin A standard (provided by National Institute of Biological Standards and Control, Potters Bar, Herts, UK) in assay buffer (100 mM TRIS/HCl, 154 mM NaCl, 5% Triton-X-100, 10% BSA pH, 7.5) and 100 microliters assay buffer. In the assay of serum, the inhibin A standard (100 microliters) was diluted in assay buffer. Inhibin-free serum (100 microliters) was also added to make a total well volume of 200 microliters. The inhibin-free serum was obtained by incubating serum with an immobilized inhibin alpha subunit antibody. […] Serum samples were initially boiled in the presence of SDS (2% final concentration) and diluted 1:1 with assay buffer before adding 100 microliters to the wells. The inhibin-free serum and the SDS boiling steps were included to offset any potential matrix effects of serum known to affect other inhibin ELISAs although the need for these specific steps had not been assessed.
(§4) The plate was incubated with shaking overnight at room temperature. The wells were washed, and alkaline phosphatase (AP)-linked antibody added, incubated with shaking for 3 hours at room temperature and washed again. The substrate (NADPH, Gibco) was added and the plate incubated for 2 hours with shaking at room temperature. The amplifying enzymes (alcohol dehydrogenase and diaphorase, Gibco) were added and incubated for 5-15 min until appropriate color had developed. The plate was read at 490/630 nm on an ELISA plate reader.
(§5) The specificity of the ELISAs was assessed by determining the cross-reaction of inhibin-related proteins in the various ELISAs.
As a result of an initial characterization of these ELISAs (see below), a combination of PO#14+PO#23 as coating antibodies and AP linked-R1 antibody as tracer was also assessed and its characteristics are also presented in Table 11 and 12 and FIG. 10c.

[7] = test system: PO#14-R1; assay: Cross-reaction of inhibin-related proteins in 14-R1 ELISA; type: binding, mouse; conditions: relative to rh inhibin A standard (=100); average of two experiments
Experimental: as §2, §3, §4, §5

[8] = test system: PO#23-R1; assay: Cross-reaction of inhibin-related proteins in 23-R1 ELISA; type: binding, mouse; conditions: relative to rh inhibin A standard (=100); average of two experiments
Experimental: as §2, §3, §4, §5

[9] = non-biotinylated peptides, hr-inhibin A as standard

Row | Molecule | As#41 ED50 [1] | As#128 ED50 [2] | As#1989 ED50 [3] | also measured
1 | SGSG ERWIVYPPSFIFHY [Peptide 14] | >10000 nM | >10000 nM | >2500 nM | 
2 | Hr-inhibin: human recombinant 30 kDa inhibin A [reference compound] |  |  |  | ED50 values As#41 [1, 9]: 2 to 8000 nM; ED50 values As#128 [2, 9]: 2 nM; ED50 values As#1989 [3, 9]: 0.1 nM
3 | SGSG VYPPSFIFHYCHGG [Peptide 15] | >10000 nM | >10000 nM | >2500 nM | 
4 | SGSG SFKYETVPNLLTQH [Peptide 32] | 290 nM | 2500 nM | >2500 nM | 
5 | SGSG ELGWERWIVYPPSF [Peptide 13] | >10000 nM | >10000 nM | >2500 nM | 
6 | SGSG LQRPPEEPAAHANC [Peptide 7] | 1250 nM | 1600 nM | >2500 nM | #128 Antibody screen Assay 1 [4]: +; #128 2-site competitive assay Assay 3 [5]: +
7 | SGSG SFIFHYCHGGCGLH [Peptide 16] | >10000 nM | >10000 nM | >2500 nM | 
8 | SGSG GGCGLHIPPNLSLP [Peptide 18] | 1050 nM | 60 nM | >2500 nM | #128 Antibody screen Assay 1 [4]: +; #128 2-site competitive assay Assay 3 [5]: +
9 | SGSG AAHANCHRVALNIS [Peptide 9] | >10000 nM | >10000 nM | >2500 nM | 
10 | SGSG NCHRVALNISFQEL [Peptide 10] | >10000 nM | >10000 nM | >2500 nM | 
11 | SGSG PLHVRTTSDGGYSF [Peptide 29] | 5000 nM | 156 nM | >2500 nM | 
12 | SGSG HYCHGGCGLHIPPN [Peptide 17] | 1050 nM | 10000 nM | >2500 nM | 
13 | SGSG LPVPGAPPTPAQPY [Peptide 21] | 1000 nM | 156 nM | >2500 nM | 
14 | SGSG PEEPAAHANCHRVA [Peptide 8] | >10000 nM | 4800 nM | >2500 nM | 
15 | SGSG VALNISFQELGWER [Peptide 11] | >10000 nM | >10000 nM | >2500 nM | 
16 | SGSG LHIPPNLSLPVPGA [Peptide 19] | 2100 nM | <10 nM | >2500 nM | #128 Antibody screen Assay 1 [4]: +; #128 2-site competitive assay Assay 3 [5]: +
17 | SGSG ISFQELGWERWIVY [Peptide 12] | >10000 nM | >10000 nM | >2500 nM | 
18 | rh-inhibin B: recombinant human inhibin B (protein, UniProt P05111 233-366; P09529 293-407, looked up) Inhibin alpha chain: STPLMSWPWSPSALRLLQRPPEEPAAHANCHRVALNISFQELGWERWIVYPPSFIFHYCHGGCGLHIPPNLSLPVPGAPPTPAQPYSLLPGAQPCCAALPGTMRPLHVRTTSDGGYSFKYETVPNLLTQHCACI Inhibin beta B chain: GLECDGRTNLCCRQQFFIDFRLIGWNDWIIAPTGYYGNYCEGSCPAYLAGVPGSASSFHTAVVNQYRMRGLNPGTVNSCCIPTKLSTMSMLYFDDEYNIVKRDVPNMIVEECGCA |  |  |  | 14 + 23-R1 ELISA specificity [6]: 138; 14-R1 ELISA specificity [7]: 320; 23-R1 ELSIA specificity [8]: 253
19 | rh-inhibin A: recombinant human inhibin A standard (protein) chain 1: STPLMSWPWSPSALRLLQRPPEEPAAHANCHRVALNISFQELGWERWIVYPPSFIFHYCHGGCGLHIPPNLSLPVPGAPPTPAQPYSLLPGAQPCCAALPGTMRPLHVRTTSDGGYSFKYETVPNLLTQHCACI chain 2: GLECDGKVNICCKKQFFVSFKDIGWNDWIIAPSGYHANYCEGECPSHIAGTSGSSLSFHSTVINHYRMRGHSPFANLKSCCVPTKLRPMSMLYYDDGQNIIKKDIQNMIVEECGCS |  |  |  | 14 + 23-R1 ELISA specificity [6]: 100; 14-R1 ELISA specificity [7]: 100; 23-R1 ELSIA specificity [8]: 100
20 | rh-activin A: recombinant human activin A (protein, UniProt P08476 311-426, looked up) Inhibin beta A chain: GLECDGKVNICCKKQFFVSFKDIGWNDWIIAPSGYHANYCEGECPSHIAGTSGSSLSFHSTVINHYRMRGHSPFANLKSCCVPTKLRPMSMLYYDDGQNIIKKDIQNMIVEECGCS |  |  |  | 14 + 23-R1 ELISA specificity [6]: <0.2; 14-R1 ELISA specificity [7]: <0.2; 23-R1 ELSIA specificity [8]: <0.2
21 | Pro-(alpha)C: preparation provided as standard in Pro-(alpha)C ELISA by Oxford Bio-innovations Ltd, UK (protein) CQGLELARELVLAKVRALFLDALGPPAVTREGGDPGVRRLPRRHALGGFTHRGSEPEEEEDVSQAILFPATDASCEDKSAARGLAQEAEEGLFRYMFRPSQHTRSRQVTSAQLWFHTGLDRQGTAASNSSEPLLGLLALSPGGPVAVPMSLGHAPPHWAVLHLATSALSLLTHPVLVLLLRCPLCTCSARPEATPFLVAHTRTRPPSGGERARRSTPLMSWPWSPSALRLLQRPPEEPAAHANCHRVALNISFQELGWERWIVYPPSFIFHYCHGGCGLHIPPNLSLPVPGAPPTPAQPYSLLPGAQPCCAALPGTMRPLHVRTTSDGGYSFKYETVPNLLTQHCACI |  |  |  | 14 + 23-R1 ELISA specificity [6]: 38.5; 14-R1 ELISA specificity [7]: 98.5; 23-R1 ELSIA specificity [8]: 41.5
